Entries after “also recorded” stand apart in the source; their conditions may differ.
Legend:
Type in all cases: cell-based, rat
PC12 cells [1] = assay: Aβ1-42-induced neurotoxicity, cell viability by MTT assay
Procedure: (§1) PC12 cells (rat pheochromocytoma) (ATCC, Manassas, Va.) were cultured in RPMI 1640 without glutamine medium containing 10% of bovine serum and 5% of horse serum at 37° and 5% CO2. These cells respond reversibly to NGF by induction of the neuronal phenotype. PC12 cells were incubated for 24 hours in 96-well plates (5.10^4 cells per well) with increasing concentrations (1, 10 and 100 μM) of procaine, procainamide, lidocaine, tetracaine, SP015, SP016, SP017 or SP008. Aβ1-42 was incubated overnight at 4° C. and then added to the cells at 0.1, 1 or 10 μM final concentrations for a 24 hours time period.
(§2) The cellular toxicity of Aβ was assessed using the 3-(4,5-dimethylthiazol-2-yl)-2,5-diphenyl tetrazolium bromide (MTT) assay (Trevigen, Gaithersburg, Md.) as previously described (Lecanu et al. (2004) Steroids, 69: 1-16). Briefly, 10 μl of the MTT solution were added to the cells cultured in 100 μl of medium. After an incubation period of 4 hours in the same conditions as above, 100 μl of detergent were added and cells incubated overnight at 37° C. The blue coloration was quantified at 600 nm and 690 nm using the Victor spectrophotometer (EGG-Wallac, Gaithersburg, Md.). The effect of Aβ1-42 was expressed as (DO600-DO690). To compare the protective effect of the compounds tested, the decrease of MTT signal observed with Aβ1-42 was considered to be the 100% inhibition of the NADPH diaphorase activity and the effect of the compounds tested is shown as an increase or decrease of this percentage.

PC12 cells [2] = assay: Glutamate-induced excitotoxicity, cell viability by MTT assay; settings: for prevention of glutamate-induced neurotoxicity: 24 h pre-treatment with compound 0.3-30 μM
Procedure: To study the role played by the NMDA receptor in the Aβ1-42-induced neurotoxicity, increasing concentrations of (+)-MK801 were added to the cell media immediately before Aβ1-42. Cell viability was assessed 4 hours later using the MTT assay. To assess the effect of procaine and SP008 on the glutamate-induced excitotoxicity, PC12 cells were pre-treated with procaine or SP008 at 0.3, 1, 3, 10 and 30 μM for 24 hours and then submitted to glutamate exposure for another 24 hour time period. Cell viability was subsequently assessed using the MTT assay. To assess the role of sodium channels in A8142-induced neurotoxicity, PC12 cells were incubated for 4 hours with the sodium-channel blocker TTX at 3, 30 or 300 μM followed by addition of Aβ1-42. Cell viability was assessed by MTT 24 hours later. The involvement of the oxidative stress in the toxicity of Aβ1-42 was assessed by incubating the PC12 in the presence of 10, 100 or 500 μM PBN for 24 hours. Aβ1-42 was then added to the incubation media. Cell viability was assessed by MTT 24 hours later.
as §2

PC12 cells [3] = assay: Aβ1-42-induced ATP depletion, ATPLite-M assay; settings: for protective effect on mitochondrial function / ATP content: compound at 1 μM
Procedure: as §1
ATP concentrations were measured using the ATPLite-M™ assay (Packard BioSciences Co.), as previously described (Lecanu et al., cited above). In brief, cells were cultured on black 96-well ViewPlate™ and the ATP concentrations measured on a TopCount NXT™ counter (Packard BioSciences Co.) according to the manufacturer recommendations. The effect of Aβ1-42 was expressed in arbitrary units. To compare the potential protective effect of the compounds tested on ATP recovery, the decrease of ATP concentration induced by Aβ1-42 was considered to be 100% reduction and the effects of the compounds tested are shown as changes of this percentage.

SMILES: CCN1CCN(C(=O)c2ccc(OC)c(OC)c2OC)CC1 [SP008, 4-Ethyl-1-(2,3,4-trimethoxybenzoyl)-piperazine]
- neuroprotection against Aβ1-42 (PC12 viability), general statement (PC12 cells [1]): significant neuroprotective properties; also recorded: strong neuroprotective properties
- protective effect against Aβ1-42-induced cytotoxicity (MTT) (PC12 cells [1]; 0.1 μM Aβ1-42, compound at 10 μM, p<0.01): exerted a protective effect
- reduction of Aβ1-42-induced NADPH diaphorase inhibition (MTT) (PC12 cells [1]; 0.1 μM Aβ1-42, compound at 1 and 100 μM): did not reduce
- neuroprotective effects against Aβ1-42 (MTT) (PC12 cells [1]; 1 μM Aβ1-42, compound at 1 (p<0.05), 10 (p<0.01) and 100 μM (p<0.001)): demonstrated neuroprotective effects
- neuroprotective properties against Aβ1-42-induced toxicity (MTT) (PC12 cells [1]; 10 μM Aβ1-42, compound at 10 (p<0.05) and 100 μM (p<0.01)): displayed neuroprotective properties
- potency against Aβ1-42 compared with procaine (PC12 cells [1]; two highest concentrations of Aβ1-42): more potent than procaine
- inhibition of the neurotoxic effect of glutamate, general statement (PC12 cells [2]): inhibited the neurotoxic effect
- lowest concentration reducing glutamate-induced neurotoxicity (PC12 cells [2]): 0.3 µM
- prevention of glutamate-induced neurotoxicity (PC12 cells [2]; glutamate 100 μM): biphasic
- neuroprotective effect compared with procaine at the same concentration (PC12 cells [2]; glutamate 100 μM, p<0.001): more important than the procaine effect
- concentration of maximum (peak) protective effect (PC12 cells [2]; glutamate 100 μM, p<0.001 compared to control): 3 µM
- preservation of intracellular ATP against Aβ1-42, general statement (PC12 cells [3]): preserved Aβ1-42-induced ATP depletion
- preservation of Aβ1-42-depleted ATP stock (PC12 cells [3]; 0.1 μM Aβ1-42, compound at 10 μM): did not preserve
- prevention of ATP decrease (PC12 cells [3]; 0.1 μM Aβ1-42, compound at 1 and 100 μM, p<0.05): prevented the ATP decrease
- ATP preservation (PC12 cells [3]; 1 μM Aβ1-42, compound 1-100 μM): dose-dependent ATP preservation
- restoration of ATP levels (PC12 cells [3]; 10 μM Aβ1-42, only 100 μM compound statistically significant (p<0.01)): dose-dependent restoration of ATP levels
- prevention of Aβ1-42-induced intracellular ATP stock depletion (PC12 cells [3]; even against 10 μM Aβ1-42): prevent the Aβ1-42-induced intracellular ATP stock depletion

SMILES: CC(=O)OC1CC(O)C2(C)C(OC(C)=O)C3C(CC(C)C12)OC(=O)C3CN1CCN(C(=O)c2ccccc2)CC1 (stereo not drawn) [SP015, Acetic acid 7-acetoxy-3-(4-benzoyl-piperazin-1-yl-methyl)-5-hydroxy-4a,8-dimethyl-2-oxo-dodecahydro-azuleno[6,5-b]furan-4-yl ester]
- neuroprotection against Aβ1-42 (PC12 viability), general statement (PC12 cells [1]): neuroprotection
- neuroprotective effect on PC12 viability after Aβ1-42 exposure (PC12 cells [1]; compound at 1 and 10 μM, only against 10 μM Aβ1-42): displayed a neuroprotective effect
- preservation of intracellular ATP against Aβ1-42, general statement (PC12 cells [3]): preservation of the ATP cellular stocks
- protective effect on mitochondrial function / ATP content (PC12 cells [3]; highest Aβ1-42 concentration examined): important protection

SMILES: CC(=O)OC1CC(OC(C)=O)C2(C)C(O)C3C(CC(C)C12)OC(=O)C3CN1CCN(C(=O)c2ccccc2)CC1 (stereo not drawn) [SP016, acetic acid 5-acetoxy-3-(4-benzoylpiperazin-1-yl-methyl)-4-hydroxy-4a,8-dimethyl-2-oxo-dodecahydro-azuleno[6,5-b]furan-7-yl ester]
- neuroprotection against Aβ1-42 (PC12 viability), general statement (PC12 cells [1]): no effect was observed
- preservation of intracellular ATP against Aβ1-42, general statement (PC12 cells [3]): preservation of the ATP cellular stocks
- protective effect on mitochondrial function / ATP content (PC12 cells [3]; low Aβ1-42 concentrations (0.1 μM)): significant effect

SMILES: CC1=CCC23OC2(C)CCC2C(CN4CCN(C(=O)c5ccccc5)CC4)C(=O)OC2C13 (stereo not drawn) [SP017, 3-(4-benzoyl-piperazin-1-yl-methyl)-6,6a-epoxy-6,9-dimethyl-3a,4,5,6,6a,7,9a,9b-octahydro-3H-azuleno[4,5-b]furan-2-one]
- efficacy range, inhibition of Aβ1-42 toxicity (mitochondrial diaphorase activity) (PC12 cells [1]): 30-70%
- neuroprotection against Aβ1-42 (PC12 viability), general statement (PC12 cells [1]): highest protective effect; also recorded: neuroprotection
- preservation of intracellular ATP against Aβ1-42, general statement (PC12 cells [3]): preservation of the ATP cellular stocks

SMILES: CCN(CC)CCOC(=O)c1ccc(N)cc1 [procaine, reference compound]
- inhibition of the neurotoxic effect of glutamate, general statement (PC12 cells [2]): inhibited the neurotoxic effect
- prevention of glutamate-induced neurotoxicity (PC12 cells [2]; glutamate 100 μM): prevented the glutamate-induced neurotoxicity in a biphasic manner
- preservation of intracellular ATP against Aβ1-42, general statement (PC12 cells [3]): restore partially

Reference: patent publication US20090197891A1, “Use of (4-Alkylpiperazinyl)(phenyl) methanones in the treatment of alzheimer's disease” (priority 2004, published 2009)
